Assay results from patent US8486974B2 (priority 2007, dated 2013).
Entries after “also recorded” stand apart in the source; their conditions may differ. Read-outs that look alike come from different tables or passages of the source.

What was measured:
[1] = test system: rabbit liver carboxylesterase; type: in vitro ADME; conditions: 0.1 mM
[2] = test system: typical digestive proteases; experiment: Stability in the presence of digestive proteases; type: in vitro ADME
[3] = type: in vitro ADME; conditions: 0.1 mM, pH 7.4
Description: Pooled plasma/serum solutions (4 ml) were prepared to the correct strength by dilution of plasma with phosphate buffer pH 7.4 (e.g. for a 10% solution 0.4 ml of plasma/serum was added to 3.6 ml of phosphate buffer pH 7.4). Following equilibration of the plasma/serum sample at 37±0.5° C. 100 μl of a stock solution of test compound in acetonitrile (1×10^−4 M) was added and 250 μl aliquots were removed at specified time intervals. Samples were transferred to 1.5 ml Eppendorf tubes containing 500 μl of a 2% w/v solution of nSO4.7H2O (water:acetonitrile, 1:1). Tubes were vortexed for 2 minutes, then centrifuged at 10,000 rpm for 3 minutes at room temperature. Supernatant was aspirated off and analysed by HPLC. The concentration of test compound and metabolites were determined with reference to calibration curves run on that day in the same concentration range and under the same experimental conditions. In order to mimic conditions during the first passage of the drugs after intestinal absorption selected compounds were incubated in phosphate buffer at 37° C. in the presence of microsomes from human liver (HLM) and intestinal epithelium (HIM). The metabolic fate of the esters under these conditions was also determined by RPHPLC by measuring the concentration of drug and metabolites in the medium as a function of time. The identity of participating enzymes was confirmed by using purified enzyme in the case of plasma (BuChE) and by repeating the hydrolysis experiments in the presence of esterase specific inhibitors—isoOMPA for BuChE and BNPP for carboxylesterase. The BuChE activity of plasma and microsomal samples was determined using the Ellman assay (Ellman et al., 1964).
Qualitative hydrolysis screening of Is-2-aspirinate-5-salicylate 2 (0.1 mM) was studied using guinea pig, hamster, rabbit and monkey plasma. The purpose of this test was to determine a suitable species for biological testing and preclinical development. The results were also expected to confirm the role of the human enzymes already identified because these are variously distributed in laboratory animals.

[4] = test system: GPIIb/IIIa; experiment: Flow cytometry of activated GPIIb/IIIa (PAC-1) on platelets; type: cell-based, human; conditions: concentrations at which aspirin has no effect
Description: In order to analyze receptor expression on the surface of individual platelets and to minimize platelet activation caused by sample preparation procedures, no stirring or vortexing steps were used. The abundance of activated GPIIb/IIIa and P-selectin on the surface of platelets in the presence and absence of inhibitors was measured by flow cytometry. Platelet samples were first activated with agonists either collagen or ADP. When platelet aggregation reached 50% maximal light transmission the reaction was terminated by 10-fold dilution with physiologic saline. Resting platelets were used as control. In most of the experiments, platelets were preincubated with inhibitors for 10 min prior to the addition of agonists. Platelet samples were then incubated in the dark without stirring for 5 min at room temperature in the presence of saturating concentrations (10 μg/ml) of P-selectin (CD62P-APC). The activated GPIIb/IIIa platelet receptors were measured using PAC-1 monoclonal antibody at the same concentration as above. PAC-1 specifically recognizes an epitope on the high-affinity GPIIb/IIIa complex of activated platelets at or near the […]. Following incubation, samples were diluted in FACS Flow fluid and analyzed within 5 min using a BD FACSArray (BD Biosciences, Oxford, UK). Flow cytometry was performed on single stained platelet samples as described before^3. The instrument was set up to measure the size (forward scatter), granularity (side scatter) and cell fluorescence. A two-dimensional analysis gate of forward and side scatter was drawn in order to include single platelets and exclude platelet aggregates and microparticles. Antibody binding was measured by analyzing individual platelets for fluorescence. The mean fluorescence intensity was determined after correction for cell autofluorescence. For each sample, the fluorescence was analyzed using a logarithmic scale. Fluorescence histograms were obtained for 10,000 individual events. Data were analyzed using Cytometer RXP software and expressed as a percentage of control fluorescence in arbitrary units.

[5] = test system: ADP-induced platelet aggregation; experiment: ADP-induced platelet aggregation in PRP; type: cell-based, human
Description: (§1) Blood was collected from healthy volunteers who had not taken any drugs known to affect platelet function for at least 14 days prior to the study. Platelet rich plasma (PRP) and washed platelet suspensions (2.5×10^8 platelets/ml) were prepared from blood as previously described.
(§2) Platelet aggregation was measured by light aggregometry as previously described. Briefly, PRP and washed platelet samples (2.5×10^8/ml) were placed in a whole blood ionized calcium lumi-aggregometer (Chronolog Corp., Havertown, Pa., U.S.A), and (BIO/DATA CORPORATION) and incubated for 10 min at 37° C., with stirring at 900 r.p.m., prior to the addition of aggregating agents. Aggregation was initiated by the addition of agonists, and monitored by Aggro-Link software for at least 6 min. For experiments using inhibitors, aggregation was initiated after 10 min preincubation with these compounds
(§3) Collagen at different concentrations (3-5 ug/ml) was also used to induce platelet aggregation. The submaximal concentrations of agonists, i.e. the concentrations that gave approximately 95% of the maximal aggregation were used to study the effects of inhibitors of aggregation. Results were expressed in percent changes in maximal light transmission, with 100% representing light transmission of platelet medium alone.

[6] = test system: collagen-induced human platelet aggregation; experiment: Collagen-induced human platelet aggregation in vitro; type: cell-based; conditions: listed as ISAS
Description: as §1, §2, §3

[7] = test system: platelet aggregation in human whole blood; experiment: Whole blood aggregation studies (impedance method); type: cell-based
Description: A 500 μl aliquot of blood was mixed with 500 μl of physiological saline and allowed to incubate at 37° C. for 10 mins in the incubation well of a Chrono-Log Whole Blood Aggregometer model 591/592. The sample was then transferred to the assay well, baseline was established and appropriate volume of reagent as above was added. Aggregation was monitored over 6 mins with impedance output recorded on a chart recorder. When testing inhibitors whole blood was pre-incubated with appropriate concentrations of inhibitor in DMSO at 37° C. for a specified length of time before adding the stimulant (10 mins with stirring). Three different aggregating agents, AA (0.5 mM), ADP (10 μM) and Collagen (5 μg/ml) were used. […] DMSO in high concentrations (above 0.25%) can induce a concentration dependent change in platelet cytoplasmic ionised calcium. Before each experiment a control was run using PRP to obtain normal aggregating responses. A sample was also incubated for 10 min at 37° C. with 10 μl DMSO to ensure it was having no inhibitory effect on the aggregation response.

[8] = Hydrolysis in the presence of human liver microsomes (HLM), with or without esterase inhibitors; type: in vitro ADME
Description: Pooled plasma/serum solutions (4 ml) were prepared to the correct strength by dilution of plasma with phosphate buffer pH 7.4 (e.g. for a 10% solution 0.4 ml of plasma/serum was added to 3.6 ml of phosphate buffer pH 7.4). Following equilibration of the plasma/serum sample at 37±0.5° C. 100 μl of a stock solution of test compound in acetonitrile (1×10^−4 M) was added and 250 μl aliquots were removed at specified time intervals. Samples were transferred to 1.5 ml Eppendorf tubes containing 500 μl of a 2% w/v solution of nSO4.7H2O (water:acetonitrile, 1:1). Tubes were vortexed for 2 minutes, then centrifuged at 10,000 rpm for 3 minutes at room temperature. Supernatant was aspirated off and analysed by HPLC. The concentration of test compound and metabolites were determined with reference to calibration curves run on that day in the same concentration range and under the same experimental conditions. […] The metabolic fate of the esters under these conditions was also determined by RPHPLC by measuring the concentration of drug and metabolites in the medium as a function of time. […] The BuChE activity of plasma and microsomal samples was determined using the Ellman assay (Ellman et al., 1964). […]

[9] = test system: MDA synthesis; experiment: MDA synthesis by washed platelets; type: cell-based

CC(=O)Oc1ccccc1C(=O)O[C@H]1CO[C@H]2[C@@H]1OC[C@H]2OC(=O)c1ccccc1O [Compound 2, Isosorbide-2-aspirinate-5-salicylate]
Drug disappearance [1]: 5 min
stability in the presence of typical digestive proteases [2]: stable
Drug disappearance time ([3]; guinea pig, 1 hr): present after 1 hr
Drug disappearance time ([3]; hamster): 20 min
Drug disappearance time ([3]; monkey): 5 min
constitutive platelet glyco-protein expression [4]: dampens constitutive platelet glyco-protein expression
potency relative to aspirin, inhibition of ADP-induced platelet aggregation [5]: significantly more potent than aspirin
potency relative to aspirin, inhibition of collagen-induced human platelet aggregation [6]: significantly more potent than aspirin; also recorded: significantly more potent than ASA
IC50 ([7]; Homo sapiens, Platelet, arachidonic acid, impedance method, read-out: IC50, platelet aggregation towards arachidonic acid in human whole blood): 17 µM
potency in inhibition of platelet aggregation in whole blood ([7]; all of the aggregatory stimuli: AA (0.5 mM), ADP (10 μM), Collagen (5 μg/ml)): significantly greater potency than aspirin or ISDA
Drug disappearance ([8]; HLM/isoOMPA (10 uM), conc drug […]): 10 min
Drug disappearance ([8]; human, 0.1 mM, pH 7.4): 10 min
MDA synthesis by washed platelets [9]: effective
